Test results taken from PubChem BioAssay (NCI).
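48-hour exposure; five concentrations; linearly interpolated endpoints. Abbreviation: GI50, concentration required for 50% inhibition of growth. TGI denotes the concentration required for complete inhibition of growth.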

Assays:
Experiment in all cases: inhibition of tumour cell growth, NCI panel, 48 h
[1] = system: SK-MEL-5 melanoma
[2] = system: A549 NSCLC
[3] = system: UO-31 renal
[4] = system: MCF7 breast
[5] = system: SF-539 CNS
[6] = system: HS 578T breast
[7] = system: LOX IMVI melanoma
[8] = system: PC-3 prostate
[9] = system: NCI/ADR-RES ovarian
[10] = system: HT29 colon
[11] = system: SNB-75 CNS
[12] = system: TK-10 renal
[13] = system: OVCAR-3 ovarian
[14] = system: HOP-62 NSCLC
[15] = system: NCI-H522 lung
[16] = system: MOLT-4 leukemia
[17] = system: DU-145 prostate
[18] = system: A498 renal
[19] = system: OVCAR-4 ovarian
[20] = system: IGROV1 ovarian
[21] = system: RPMI-8226 leukemia
[22] = system: HCT-116 colon
[23] = system: HCC-2998 colon
[24] = system: SN12C renal
[25] = system: EKVX NSCLC
[26] = system: 786-0 renal
[27] = system: HL-60(TB) leukemia
[28] = system: SW-620 colon
[29] = system: HOP-92 NSCLC
[30] = system: ACHN renal
[31] = system: MDA-MB-231 breast
[32] = system: SF-295 CNS
[33] = system: NCI-H226 lung
[34] = system: UACC-62 melanoma
[35] = system: MDA-MB-435
[36] = system: HCT-15 colon
[37] = system: MALME-3M melanoma
[38] = system: KM12 colon
[39] = system: SK-OV-3 ovarian
[40] = system: OVCAR-5 ovarian
[41] = system: RXF 393 renal
[42] = system: COLO 205 colon
[43] = system: NCI-H460 lung
[44] = system: NCI-H23 lung
[45] = system: U251 CNS
[46] = system: CCRF-CEM leukemia
[47] = system: SK-MEL-28 melanoma
[48] = system: UACC-257 melanoma
[49] = system: OVCAR-8 ovarian
[50] = system: SF-268 CNS
[51] = system: T-47D breast
[52] = system: BT-549 breast
[53] = system: K-562 leukemia
[54] = system: MDA-MB-468 breast
[55] = system: CAKI-1 renal
[56] = system: SNB-19 CNS
[57] = system: SK-MEL-2 melanoma
[58] = system: SR leukemia
[59] = system: M14 melanoma

`CN(C)CCOc1ccc(C(=O)C2[C@H](c3ccc(Cl)cc3)[C@@H](c3ccccc3)NC23C(=O)Nc2ccc(Cl)cc23)cc1` (stereo partly drawn) was tested. Which GI50 [1] did it give?
The GI50 was 15.8 µM.

What about the TGI [1] of the same compound?
The TGI was 29.2 µM.

What about the GI50 [2] of the same compound?
Its GI50 is 14.3 µM.

And the TGI [2]?
The TGI was 28.9 µM.

What about the GI50 [3] of the same compound?
The GI50 was 12.8 µM.

And the TGI [3]?
The TGI was 25.5 µM.

What about the GI50 [4] of the same compound?
Its GI50 is 5.71 µM.

And the TGI [4]?
The TGI was 18.8 µM.

And the GI50 [5]?
Its GI50 is 14.7 µM.

And the TGI [5]?
The TGI was 27.8 µM.

And the GI50 [6]?
The GI50 was 12.5 µM.

What about the TGI [6] of the same compound?
The TGI was 34.2 µM.

What about the GI50 [7] of the same compound?
Its GI50 is 13.5 µM.

And the TGI [7]?
Its TGI is 26.8 µM.

What about the GI50 [8] of the same compound?
Its GI50 is 15.5 µM.

What about the TGI [8] of the same compound?
Its TGI is 31.7 µM.

What about the GI50 [9] of the same compound?
Its GI50 is 16.6 µM.

And the TGI [9]?
Its TGI is 31.4 µM.

What about the GI50 [10] of the same compound?
The GI50 was 14.4 µM.

What about the TGI [10] of the same compound?
Its TGI is 28.1 µM.

And the GI50 [11]?
Its GI50 is 10.4 µM.

What about the TGI [11] of the same compound?
Its TGI is 24.7 µM.

And the GI50 [12]?
The GI50 was 14 µM.

What about the TGI [12] of the same compound?
Its TGI is 27.3 µM.

What about the GI50 [13] of the same compound?
The GI50 was 14.2 µM.

And the TGI [13]?
Its TGI is 29.9 µM.

What about the GI50 [14] of the same compound?
The GI50 was 12.7 µM.

What about the TGI [14] of the same compound?
The TGI was 26 µM.

And the GI50 [15]?
The GI50 was 14.8 µM.

What about the TGI [15] of the same compound?
Its TGI is 29.1 µM.

What about the GI50 [16] of the same compound?
The GI50 was 12.6 µM.

What about the TGI [16] of the same compound?
The TGI was 29.6 µM.

And the GI50 [17]?
Its GI50 is 15.9 µM.

What about the TGI [17] of the same compound?
Its TGI is 30.2 µM.

And the GI50 [18]?
The GI50 was 14.6 µM.

And the TGI [18]?
The TGI was 28.1 µM.

And the GI50 [19]?
The GI50 was 14.4 µM.

What about the TGI [19] of the same compound?
The TGI was 29 µM.

And the GI50 [20]?
Its GI50 is 14.3 µM.

What about the TGI [20] of the same compound?
Its TGI is 28.2 µM.

And the GI50 [21]?
Its GI50 is 18.6 µM.

And the TGI [21]?
Its TGI is 43.4 µM.

And the GI50 [22]?
Its GI50 is 12.8 µM.

And the TGI [22]?
Its TGI is 26 µM.

And the GI50 [23]?
The GI50 was 13.4 µM.

And the TGI [23]?
Its TGI is 26.9 µM.

And the GI50 [24]?
Its GI50 is 13.5 µM.

And the TGI [24]?
The TGI was 26.7 µM.

And the GI50 [25]?
The GI50 was 14.3 µM.

And the TGI [25]?
Its TGI is 28.1 µM.

And the GI50 [26]?
The GI50 was 15 µM.

And the TGI [26]?
The TGI was 29.2 µM.

And the GI50 [27]?
The GI50 was 11 µM.

And the TGI [27]?
The TGI was 28.1 µM.

What about the GI50 [28] of the same compound?
Its GI50 is 12.3 µM.

And the TGI [28]?
Its TGI is 25.3 µM.

What about the GI50 [29] of the same compound?
The GI50 was 8.92 µM.

And the TGI [29]?
Its TGI is 22.2 µM.

And the GI50 [30]?
Its GI50 is 14.5 µM.

And the TGI [30]?
Its TGI is 27.6 µM.

What about the GI50 [31] of the same compound?
The GI50 was 15.1 µM.

What about the TGI [31] of the same compound?
The TGI was 28.7 µM.

And the GI50 [32]?
The GI50 was 16.3 µM.

What about the TGI [32] of the same compound?
Its TGI is 30.5 µM.

What about the GI50 [33] of the same compound?
The GI50 was 15.3 µM.

And the TGI [33]?
Its TGI is 33.1 µM.

And the GI50 [34]?
The GI50 was 15.1 µM.

What about the TGI [34] of the same compound?
Its TGI is 28.7 µM.

And the GI50 [35]?
Its GI50 is 14.5 µM.

And the TGI [35]?
Its TGI is 28.2 µM.

And the GI50 [36]?
The GI50 was 15.2 µM.

What about the TGI [36] of the same compound?
The TGI was 28.8 µM.

What about the GI50 [37] of the same compound?
Its GI50 is 14.7 µM.

And the TGI [37]?
The TGI was 29.7 µM.

What about the GI50 [38] of the same compound?
The GI50 was 13.6 µM.

And the TGI [38]?
Its TGI is 29 µM.

And the GI50 [39]?
Its GI50 is 14.3 µM.

And the TGI [39]?
The TGI was 27.7 µM.

What about the GI50 [40] of the same compound?
The GI50 was 14.6 µM.

And the TGI [40]?
Its TGI is 27.8 µM.

And the GI50 [41]?
Its GI50 is 10.8 µM.

And the TGI [41]?
Its TGI is 23.6 µM.

What about the GI50 [42] of the same compound?
Its GI50 is 15.6 µM.

And the TGI [42]?
The TGI was 29.3 µM.

And the GI50 [43]?
Its GI50 is 13 µM.

What about the TGI [43] of the same compound?
Its TGI is 26.3 µM.

What about the GI50 [44] of the same compound?
The GI50 was 16.4 µM.

What about the TGI [44] of the same compound?
Its TGI is 31 µM.

And the GI50 [45]?
The GI50 was 15.3 µM.

What about the TGI [45] of the same compound?
The TGI was 29.3 µM.

What about the GI50 [46] of the same compound?
Its GI50 is 16.8 µM.

What about the TGI [46] of the same compound?
Its TGI is 34.8 µM.

And the GI50 [47]?
Its GI50 is 16.2 µM.

And the TGI [47]?
The TGI was 29.9 µM.

And the GI50 [48]?
The GI50 was 15.7 µM.

And the TGI [48]?
The TGI was 30.6 µM.

What about the GI50 [49] of the same compound?
Its GI50 is 16.3 µM.

What about the TGI [49] of the same compound?
The TGI was 31.5 µM.

And the GI50 [50]?
The GI50 was 15 µM.

What about the TGI [50] of the same compound?
The TGI was 33.5 µM.

And the GI50 [51]?
Its GI50 is 14.6 µM.

What about the TGI [51] of the same compound?
Its TGI is 30 µM.

What about the GI50 [52] of the same compound?
The GI50 was 14.4 µM.

And the TGI [52]?
Its TGI is 27.7 µM.

What about the GI50 [53] of the same compound?
The GI50 was 13 µM.

What about the TGI [53] of the same compound?
Its TGI is 34.2 µM.

And the GI50 [54]?
Its GI50 is 8.98 µM.

And the TGI [54]?
The TGI was 22.3 µM.

And the GI50 [55]?
The GI50 was 13.4 µM.

What about the TGI [55] of the same compound?
The TGI was 26.3 µM.

What about the GI50 [56] of the same compound?
The GI50 was 15.6 µM.

What about the TGI [56] of the same compound?
Its TGI is 29.2 µM.

What about the GI50 [57] of the same compound?
Its GI50 is 15.9 µM.

And the TGI [57]?
The TGI was 30 µM.

And the GI50 [58]?
The GI50 was 13.7 µM.

And the TGI [58]?
Its TGI is 29.7 µM.

And the GI50 [59]?
Its GI50 is 16 µM.

And the TGI [59]?
Its TGI is 29.8 µM.
